Literature values as cited in patent US20160303051A1, “Burst Drug Release Compositions” (Wyeth LLC, priority 2009, published 2016).

## CC(C)Cc1ccc(C(C)C(=O)O)cc1 (stereo not shown) [Ibuprofen, ibuprofen]
  solubility (BCS): low solubility
